Assay results taken from patent US20080032939A1, “Iridoid-saccharide compound and method of using same” (Health Research, Inc., priority 2004, published 2008).

Columns and labels:
colo-26 tumors = experiment: In vivo efficacy in mice bearing colo-26 tumors
Protocol: (§1) All the plant products isolated from the bark of Plumeria bicolor were insoluble in water and were dissolved in 1% Tween 80 in 5% dextrose solution. Among these analogs, plumeiride 3 produced good cytotoxicity producing a lethal dose 60% (LD60) with 200 μM, and an LD20 with 400 μM C-17 in colo-26 tumor cells. […] Plumieride 3 was then evaluated for in vivo efficacy in mice (6 mice/group) bearing colo-26 tumors at variable concentrations. […] This response was doubled to 24 days when the dose was increased to 100 mg/kg/mouse (FIG. 3).
(§2) On day 9, the drug administration was stopped and tumors were allowed to grow until they reached the size of approximately 350 mm^3 in volume. The drug injection was resumed (150 mg/kg/mouse) daily for another 7 days.

colo-26 tumor cells = experiment: In vitro cytotoxicity in Colo-26 tumor cells; type: cell-based
Protocol: Vehicle: 1% Tween 80 in 5% dextrose solution.
as §1

[1] = Preliminary screening of toxicity in treated mice; type: in vivo; details: mice treated with compound 3
Protocol: as §2

[2] = colo-26 tumor cells, vehicle 1% Tween 80 in 5% dextrose

COC(=O)C1=CO[C@@H](O[C@@H]2O[C@H](CO)[C@@H](O)[C@H](O)[C@H]2O)[C@H]2[C@@H]1C=C[C@@]21C=C([C@H](C)O)C(=O)O1 [compound 3, plumieride]
tumor volume after injections were re-initiated (colo-26 tumors; 150 mg/kg/mouse daily for another 7 days, resumed at tumor size approximately 350 mm^3): regressed to almost half the size | tumor inhibition (colo-26 tumors; 150 mg/kg/mouse, as long as the drug was injected (until day 9)): complete tumor inhibition | time with no increase in tumor volume (colo-26 tumors; dose 100 mg/kg/mouse, mice bearing colo-26 tumors): 24 days | time with no increase in tumor volume (colo-26 tumors; injected daily with 50 mg/kg/mouse, mice bearing colo-26 tumors): 12 days | tumor growth delay versus untreated control mice (colo-26 tumors; mice bearing colo-26 tumors, variable concentrations): significant tumor growth delay | LD20 (colo-26 tumor cells; [2]): 400 µM | lethal dose 60% (LD60) (colo-26 tumor cells; [2]): 200 µM | relative effectiveness among the components isolated from the bark (colo-26 tumor cells; compared with triterpenoids 1, 2): most effective | visible toxicity, body weight, daily habits [1]: no visible toxicity as well as a change in body weight or daily habits
